How the values were obtained:
[1] = Ulcerogenic activity in Sprague-Dawley rat assessed as ulcer index at 20 mg/kg, ip pretreated followed by pylorus ligation and measured at 4 hrs post ligation; assay type: toxicity, organism-based; details: in vivo
[2] = test system: Mus musculus; experiment: Analgesic activity in Swiss albino mouse assessed as protection against acetic acid-induced writhing at 15 mg/kg, po pretreated for 30 mins followed by acetic acid challenge and measured after 20 mins relative to control; assay type: functional
[3] = test system: Rattus norvegicus; experiment: Antiinflammatory activity in Sprague-Dawley rat assessed as inhibition of carrageenan-induced edema at 15 mg/kg, po pretreated for 1 hr followed by carrageenan challenge and measured after 4 hrs by mercury plethysmometer relative to control; assay type: functional
[4] = test system: A549; experiment: Antiproliferative activity against human A549 after 18 hrs by MTT assay; assay type: functional, cell-based; details: A549, 18 h
[5] = test system: HCT-116; experiment: Antiproliferative activity against human HCT116 after 18 hrs by MTT assay; assay type: functional, cell-based; details: HCT-116, 18 h
[6] = test system: Bacillus subtilis; experiment: Antibacterial activity against Bacillus subtilis assessed as zone inhibition at 100 ug/ml; assay type: functional; details: read-out: IZ
[7] = test system: Escherichia coli; experiment: Antibacterial activity against Escherichia coli assessed as zone inhibition at 100 ug/ml; assay type: functional; details: read-out: IZ
[8] = test system: Staphylococcus aureus; experiment: Antibacterial activity against Staphylococcus aureus assessed as zone inhibition at 100 ug/ml; assay type: functional; details: read-out: IZ
[9] = test system: Klebsiella pneumoniae; experiment: Antibacterial activity against Klebsiella pneumoniae assessed as zone inhibition at 100 ug/ml; assay type: functional; details: read-out: IZ
[10] = Inhibition of Influenza A virus H3N2 Neuraminidase
[11] = test system: Human alphaherpesvirus 1; experiment: Antiviral activity against Herpes simplex virus 1 at 50 ug/10^5; assay type: functional
[12] = test system: Human alphaherpesvirus 1; experiment: Antiviral activity against Herpes simplex virus 1 at 20 ug/10^5; assay type: functional
[13] = test system: Hepatovirus A; experiment: Antiviral activity against Hepatitis A virus infected in HepG2 cells assessed as virus inhibition at 40 ug/L incubated overnight with virus followed by inoculation and measured after 1 hr by crystal violet staining based plaque reduction assay; assay type: functional
[14] = target: Cyclin-dependent kinase 2/cyclin E1 (Homo sapiens, UniProt P24941); experiment: Inhibition of CDK2/cyclin E (unknown origin) expressed in baculovirus infected Sf9 insect cells using GST-Rb as substrate in presence of [33P] ATP incubated for 30 mins
[15] = organism: Homo sapiens; experiment: Selectivity ratio of IC50 for CDK2/cyclin E (unknown origin) expressed in baculovirus infected Sf9 insect cells to IC50 for CDK4/cyclin D1 (unknown origin) expressed in baculovirus infected Sf9 insect cells
[16] = target: Cyclin-dependent kinase 4/cyclin D1 (Homo sapiens, UniProt P11802); experiment: Inhibition of CDK4/cyclin D1 (unknown origin) expressed in baculovirus infected Sf9 insect cells using GST-Rb as substrate in presence of [33P] ATP incubated for 30 mins
Chain of Cyclin-dependent kinase 4/cyclin D1 (P11802 whole entry): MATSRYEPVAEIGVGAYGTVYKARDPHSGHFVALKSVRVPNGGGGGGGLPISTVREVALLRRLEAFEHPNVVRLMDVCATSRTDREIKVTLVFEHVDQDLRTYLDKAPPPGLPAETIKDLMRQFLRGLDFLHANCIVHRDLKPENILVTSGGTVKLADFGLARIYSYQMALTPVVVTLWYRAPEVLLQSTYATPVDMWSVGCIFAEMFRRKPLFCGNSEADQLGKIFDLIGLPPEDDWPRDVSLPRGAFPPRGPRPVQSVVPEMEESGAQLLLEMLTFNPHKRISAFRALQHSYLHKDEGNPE
Chain of Cyclin-dependent kinase 4/cyclin D1 (P24385 whole entry, further chain): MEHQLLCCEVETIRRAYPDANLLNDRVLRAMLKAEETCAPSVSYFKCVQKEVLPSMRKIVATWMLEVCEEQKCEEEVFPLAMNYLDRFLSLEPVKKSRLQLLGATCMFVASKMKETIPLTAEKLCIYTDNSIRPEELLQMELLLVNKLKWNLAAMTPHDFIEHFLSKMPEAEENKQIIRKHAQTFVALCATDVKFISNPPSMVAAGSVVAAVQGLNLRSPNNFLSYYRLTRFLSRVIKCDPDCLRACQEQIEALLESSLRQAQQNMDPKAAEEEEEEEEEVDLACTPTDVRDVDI

[17] = test system: Rattus norvegicus; experiment: Antiinflammatory activity in gamma irradiated rat assessed as reduction in COX-2 level in liver tissue homogenates at 150 mg/kg, ip administered once daily for 7 consecutive days by ELISA (reference value: 89.50 +/- 2.617 ng/ml); assay type: functional
[18] = test system: Rattus norvegicus; experiment: Antiinflammatory activity in gamma irradiated rat assessed as reduction in serum TNFalpha level at 150 mg/kg, ip administered once daily for 7 consecutive days by ELISA (reference value: 105.07 +/- 3.925 pg/ml); assay type: functional
[19] = test system: Rattus norvegicus; experiment: Antiinflammatory activity in gamma irradiated rat assessed as reduction in serum IL-6 level at 150 mg/kg, ip administered once daily for 7 consecutive days by ELISA (reference value: 103.87 +/- 3.273 pg/ml); assay type: functional
[20] = test system: Rattus norvegicus; experiment: Antiinflammatory activity in gamma irradiated rat assessed as reduction in NFkappaB level in liver tissue homogenates at 150 mg/kg, ip administered once daily for 7 consecutive days by ELISA (reference value: 258.33 +/- 4.216 pg/ml); assay type: functional
[21] = organism: Homo sapiens; experiment: Selectivity ratio of Ki for human A1 receptor expressed in CHO cells to Ki for human A3 receptor expressed in CHO cells; assay type: cell-based
[22] = target: T1, Adenosine receptor A3 (Homo sapiens, UniProt P0DMS8); experiment: Displacement of [3H]-HEMADO from human A3 receptor expressed in CHO cells by radioligand competitive binding assay; assay type: cell-based
T1 sequence (P0DMS8 whole entry): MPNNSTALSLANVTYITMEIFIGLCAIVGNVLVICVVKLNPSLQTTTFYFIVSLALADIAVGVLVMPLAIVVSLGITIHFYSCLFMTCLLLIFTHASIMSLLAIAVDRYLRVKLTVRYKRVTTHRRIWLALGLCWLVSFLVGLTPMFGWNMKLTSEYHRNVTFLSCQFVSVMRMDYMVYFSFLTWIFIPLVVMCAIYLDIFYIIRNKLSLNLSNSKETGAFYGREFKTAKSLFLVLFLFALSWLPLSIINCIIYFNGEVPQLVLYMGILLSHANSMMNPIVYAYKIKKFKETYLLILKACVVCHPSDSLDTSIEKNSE

[23] = target: Adenosine receptor A2a (Homo sapiens, UniProt P29274); experiment: Displacement of [3H]-NECA from human A2A receptor expressed in CHO cells by radioligand competitive binding assay; assay type: cell-based
Chain of Adenosine receptor A2a (P29274 whole entry): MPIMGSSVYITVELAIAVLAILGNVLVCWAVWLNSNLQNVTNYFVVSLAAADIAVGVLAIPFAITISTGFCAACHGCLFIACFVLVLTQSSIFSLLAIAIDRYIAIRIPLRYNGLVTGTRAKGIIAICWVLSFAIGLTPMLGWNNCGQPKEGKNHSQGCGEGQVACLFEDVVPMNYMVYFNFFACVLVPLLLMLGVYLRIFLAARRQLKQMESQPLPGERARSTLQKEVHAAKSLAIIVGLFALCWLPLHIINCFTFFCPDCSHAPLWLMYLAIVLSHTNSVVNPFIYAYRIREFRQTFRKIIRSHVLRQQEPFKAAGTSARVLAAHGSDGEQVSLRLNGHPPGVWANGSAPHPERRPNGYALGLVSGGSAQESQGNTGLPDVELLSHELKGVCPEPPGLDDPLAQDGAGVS

[24] = target: T2, Adenosine receptor A1 (Homo sapiens, UniProt P30542); experiment: Displacement of [3H]-CCPA binding from human A1 receptor expressed in CHO cells by radioligand competitive binding assay; assay type: cell-based
T2 sequence (P30542 whole entry): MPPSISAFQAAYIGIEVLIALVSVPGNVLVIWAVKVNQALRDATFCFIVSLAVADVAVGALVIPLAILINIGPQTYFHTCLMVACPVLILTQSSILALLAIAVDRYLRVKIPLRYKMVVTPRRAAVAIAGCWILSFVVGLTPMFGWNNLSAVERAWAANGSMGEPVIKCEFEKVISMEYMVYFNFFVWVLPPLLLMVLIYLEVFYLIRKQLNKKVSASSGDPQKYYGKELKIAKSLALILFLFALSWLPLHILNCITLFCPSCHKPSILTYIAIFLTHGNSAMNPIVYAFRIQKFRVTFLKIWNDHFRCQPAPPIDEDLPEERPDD

[25] = organism: Homo sapiens; experiment: Selectivity ratio of Ki for human A2A receptor expressed in CHO cells to Ki for human A3 receptor expressed in CHO cells; assay type: cell-based
[26] = organism: Homo sapiens; experiment: Selectivity ratio of Ki for human A1 receptor expressed in CHO cells to Ki for human A2A receptor expressed in CHO cells; assay type: cell-based

SMILES: Cc1c(-c2ccccc2)sc2nc3n(-c4ccccc4)nc(-c4ccccc4)n3c(=O)c12
- UI [1]: 1.1
- Activity [2]: 52%
- inhibition in vivo at 15 mg/kg [3]: 74.6%

SMILES: CCc1cc2c(OCc3cc(-c4ccc(Cl)cc4)no3)ncnc2s1
- IC50 [4]: 45.5 µM
- IC50 [5]: 33.3 µM

SMILES: CC(=O)c1nn(-c2ccc(Cl)cc2)c2nc3sc(-c4ccccc4)c(C)c3c(=O)n12
- UI [1]: 0.9
- Activity [2]: 35%
- inhibition in vivo at 15 mg/kg [3]: 74.5%

SMILES: Cc1cc2c(OCc3cc(-c4ccc(Cl)cc4)no3)ncnc2s1
- IC50 [4]: 2.79 µM
- IC50 [5]: 6.69 µM

SMILES: CC1(C)S[C@@H]2[C@H](NC(=O)[C@H](N)c3ccc(O)cc3)C(=O)N2[C@H]1C(=O)O [AMOXICILLIN]
- zone of inhibition at 100 µg/mL [6]: 15.5 mm
- zone of inhibition at 100 µg/mL [7]: 19.5 mm
- zone of inhibition at 100 µg/mL [8]: 17.6 mm
- zone of inhibition at 100 µg/mL [9]: 18 mm

SMILES: FC(F)(F)Oc1ccc(C2=NOC(c3cc4cncnc4s3)C2)cc1 (stereo not given)
- zone of inhibition at 100 µg/mL [6]: 12.5 mm
- zone of inhibition at 100 µg/mL [7]: 16.5 mm
- zone of inhibition at 100 µg/mL [8]: 14.5 mm
- zone of inhibition at 100 µg/mL [9]: 15 mm

SMILES: O=CC1CN(c2nc(-c3c[nH]c4ccccc34)nc3sc4c(c23)CCCC4)N=C1c1ccccc1 (stereo not given)
- IC50 [10]: 89 nM

SMILES: COCCSc1ncnc2sc3c(c12)-c1ccccc1CC3
- Activity [11]: 30%
- Activity [12]: 15%

SMILES: CC(=O)Cc1c(C(C)C)sc2nc(S)[nH]c(=S)c12
- UI [1]: 1.1
- Activity [2]: 60%
- inhibition in vivo at 15 mg/kg [3]: 71.6%

SMILES: CC(=O)OC[C@H]1O[C@@H](Sc2nc3sc4c(c3c(=O)n2CCO)CCCCC4)[C@H](OC(C)=O)[C@@H](OC(C)=O)[C@@H]1OC(C)=O
- inhibition (INH) [13]: 65%

SMILES: CC(=O)OC[C@H]1O[C@@H](Sc2nc3sc4c(c3c(=O)n2-c2ccccc2)CCCCC4)[C@H](OC(C)=O)[C@@H](OC(C)=O)[C@@H]1OC(C)=O
- inhibition (INH) [13]: 50%

SMILES: CC(N)c1csc(/C=N/Nc2ncnc3sc(C(C)(C)CF)cc23)n1 (stereo not given)
- IC50 [14]: 680 nM
- Ratio IC50 [15]: 14.7
- IC50 [16]: 46 nM

SMILES: CCOC(=O)c1sc2ncnc(N[C@@H](CCSC)C(=O)O)c2c1C
- COX-2 level in liver homogenate [17]: 28.5 ng/mL
- Serum TNFalpha level [18]: 38.5 pg/mL
- Serum IL-6 level [19]: 45.72 pg/mL
- NFkappaB level in liver tissue [20]: 66.17 pg/mL

SMILES: COCCSc1nc(C)nc2sc3c(c12)-c1ccccc1CC3
- Activity [11]: 45%
- Activity [12]: 5%

SMILES: Cc1sc2nc(N)nc(-n3cncn3)c2c1C
- Ratio Ki [21]: > 1.4
- Ki [22]: > 30 µM
- Ki [23]: 5.69 µM
- Ki [24]: 40.8 µM
- Ratio Ki [25]: > 0.19
- Ratio Ki [26]: 7.2

SMILES: C/C(=N\Nc1nc(-c2c[nH]c3ccccc23)nc2sc3c(c12)CCCC3)c1ccccc1
- IC50 [10]: 237 nM

SMILES: NC12CC3CC(CC(C3)C1)C2 [AMANTADINE]
- inhibition (INH) [13]: 55%

SMILES: CC(=O)OC[C@H]1O[C@@H](Sc2nc3sc4c(c3c(=O)n2C)CCCCC4)[C@H](OC(C)=O)[C@@H](OC(C)=O)[C@@H]1OC(C)=O
- inhibition (INH) [13]: 50%

SMILES: O=C1c2ccccc2C(=O)N1Nc1nc(-c2c[nH]c3ccccc23)nc2sc3c(c12)CCCC3
- IC50 [10]: 67 nM
